Results as given in US10052320B2, “Substituted quinoxalines as FGFR kinase inhibitors” (ASTEX THERAPEUTICS LIMITED, priority 2011, dated 2018).

Assays:
Format in all cases: cell-based
[1] = biological target: Ba/F3-FGFR1-transfected cells (Homo sapiens, UniProt P11362); experiment: Ba/F3-FGFR1 (minus IL3) cellular proliferation assay, Alamar Blue; details: for BAF3-FGFR 1 (MIN IL3) 96 well pIC50: minus IL3, 96 well; for BAF3-FGFR 1 (MIN IL3) 384 well pIC50: minus IL3, 384 well
Procedure: Ba/F3-FGFR1 (Minus IL3 or Plus IL3) (Cellular Proliferation Assay)
(§1) Cells were put in an incubator at 37° C. and 5% CO2. After 24 hours, 10 μl of Alamar Blue solution (0.5 mM K3Fe(CN)6, 0.5 mM KaFe(CN)6, 0.15 mM Resazurin and 100 mM Phosphate Buffer) was added to the wells, incubated for 4 hours at 37° C. and 5% CO2 before RFU's (Relative Fluorescence Units) (ex. 540 nm., em. 590 nm.) were measured in a flurorescence plate reader. […]
(§2) In a 96 well plate, 180 μl cell culture medium (phenol red free RPMI-1640, 10% FBS, 2 mM L-Glutamine and 50 μg/ml Gentamycin) containing 10000 cells per well of Ba/F3-FGFR1-transfected cells were pipette and 20 μl of compound dilution in DMSO was added. Cells were put in an incubator at 37° C. and 5% CO2. After 24 hours, 40 μl of Alamar Blue solution (0.5 mM K3Fe(CN)6, 0.5 mM KaFe(CN)6, 0.15 mM Resazurin and 100 mM Phosphate Buffer) was added to the wells, incubated for 4 hours at 37° C. and 5% CO2 before RFU's (Relative Fluorescence Units) (ex. 540 nm., em. 590 nm.) were measured in a flurorescence plate reader.

[2] = biological target: Ba/F3-FGFR3-transfected cells (Homo sapiens, UniProt P22607); experiment: Ba/F3-FGFR3 (minus IL3) cellular proliferation assay, Alamar Blue; details: for BAF3-FGFR 3 (MIN IL3) 96 well pIC50: minus IL3, 96 well; for BAF3-FGFR 3 (MIN IL3) 384 well pIC50: minus IL3, 384 well
Ba/F3-FGFR3-transfected cells, sequence (P22607 whole entry, change not shown): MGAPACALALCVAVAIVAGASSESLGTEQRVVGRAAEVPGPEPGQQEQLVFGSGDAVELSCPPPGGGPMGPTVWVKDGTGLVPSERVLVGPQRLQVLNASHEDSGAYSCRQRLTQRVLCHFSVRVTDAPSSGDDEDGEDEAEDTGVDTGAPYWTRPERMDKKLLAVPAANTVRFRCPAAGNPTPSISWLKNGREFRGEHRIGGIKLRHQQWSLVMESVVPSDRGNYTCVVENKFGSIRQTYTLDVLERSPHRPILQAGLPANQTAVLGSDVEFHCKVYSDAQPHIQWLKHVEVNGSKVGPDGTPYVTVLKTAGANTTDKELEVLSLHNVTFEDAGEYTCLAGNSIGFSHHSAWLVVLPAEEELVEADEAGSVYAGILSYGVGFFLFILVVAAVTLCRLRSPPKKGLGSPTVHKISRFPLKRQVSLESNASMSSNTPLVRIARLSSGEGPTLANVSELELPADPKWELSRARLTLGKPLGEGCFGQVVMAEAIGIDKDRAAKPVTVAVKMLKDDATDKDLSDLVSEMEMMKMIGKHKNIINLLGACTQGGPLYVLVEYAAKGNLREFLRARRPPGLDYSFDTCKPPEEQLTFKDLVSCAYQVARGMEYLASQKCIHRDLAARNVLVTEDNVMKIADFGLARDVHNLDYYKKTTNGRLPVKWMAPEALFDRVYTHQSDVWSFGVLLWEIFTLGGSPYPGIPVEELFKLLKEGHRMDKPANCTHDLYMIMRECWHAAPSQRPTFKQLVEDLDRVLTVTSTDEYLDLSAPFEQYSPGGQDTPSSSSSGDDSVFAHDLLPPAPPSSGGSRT
Procedure: Ba/F3-FGFR3 (Minus IL3 or Plus IL3) (Cellular Proliferation Assay)
as §1
as §2, with “Ba/F3-FGFR3-transfected” for “Ba/F3-FGFR1-transfected”

[3] = biological target: T1, Ba/F3-Flt3-transfected cells (Homo sapiens, UniProt P36888, cells depend on it, form not given); experiment: Ba/F3-Flt3 (minus IL3) cellular proliferation assay, Alamar Blue
T1 sequence (P36888 1-993): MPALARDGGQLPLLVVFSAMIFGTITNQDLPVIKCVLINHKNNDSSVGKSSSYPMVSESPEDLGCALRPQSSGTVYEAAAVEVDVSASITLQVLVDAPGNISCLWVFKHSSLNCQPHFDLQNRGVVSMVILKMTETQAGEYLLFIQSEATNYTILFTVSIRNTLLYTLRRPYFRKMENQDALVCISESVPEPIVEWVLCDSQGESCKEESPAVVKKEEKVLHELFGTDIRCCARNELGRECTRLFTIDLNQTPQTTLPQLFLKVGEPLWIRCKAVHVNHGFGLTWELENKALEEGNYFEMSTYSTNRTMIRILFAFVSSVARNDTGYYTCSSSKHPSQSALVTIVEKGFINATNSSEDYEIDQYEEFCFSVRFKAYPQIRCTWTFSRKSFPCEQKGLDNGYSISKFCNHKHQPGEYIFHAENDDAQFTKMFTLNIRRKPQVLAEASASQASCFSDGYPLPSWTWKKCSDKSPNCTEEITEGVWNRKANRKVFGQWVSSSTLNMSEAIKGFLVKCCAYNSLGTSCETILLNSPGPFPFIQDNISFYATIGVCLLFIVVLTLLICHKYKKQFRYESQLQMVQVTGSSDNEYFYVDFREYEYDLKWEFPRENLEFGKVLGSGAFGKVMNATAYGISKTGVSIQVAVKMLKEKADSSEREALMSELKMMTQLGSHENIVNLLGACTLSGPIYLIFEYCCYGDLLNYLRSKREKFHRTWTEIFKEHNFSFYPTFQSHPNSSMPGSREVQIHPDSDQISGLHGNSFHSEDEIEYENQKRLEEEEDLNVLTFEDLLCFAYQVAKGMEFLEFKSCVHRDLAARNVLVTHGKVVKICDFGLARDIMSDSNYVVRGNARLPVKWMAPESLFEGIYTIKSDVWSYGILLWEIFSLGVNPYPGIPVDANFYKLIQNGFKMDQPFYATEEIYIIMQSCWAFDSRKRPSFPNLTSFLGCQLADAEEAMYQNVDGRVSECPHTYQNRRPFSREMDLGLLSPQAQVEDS
Procedure: (§3) Ba/F3-Flt3 (Minus IL3 or Plus IL3) (Cellular Proliferation Assay)
as §1
as §2, with “Ba/F3-Flt3-transfected” for “Ba/F3-FGFR1-transfected”

[4] = test system: Ba/F3-Flt3-transfected cells in the presence of 10 ng/ml murine IL3; experiment: Ba/F3-Flt3 (plus IL3) cellular proliferation counterscreen, Alamar Blue; details: plus 10 ng/ml murine IL3; for IC50: Mus musculus, read-out: BAF3-FLT3 (PLUS IL3) 384 well pIC50 (converted)
Procedure: as §3
as §2, with “a 384” for “a 96”, “plate, 100 nl of compound dilution in DMSO was sprayed before adding 50” for “plate, 180”, “containing 20000” for “containing 10000”, “of Ba/F3-Flt3-transfected cells.” for “of Ba/F3-FGFR1-transfected cells were pipette and 20 μl of compound dilution in DMSO was added.”, “hours, 10” for “hours, 40”
As a counterscreen the same experiment was performed in the presence of 10 ng/ml murine IL3.
as §2, with “Ba/F3-Flt3-transfected” for “Ba/F3-FGFR1-transfected”

Ba/F3-FGFR1-transfected cells, sequence (P11362 whole entry, change not shown): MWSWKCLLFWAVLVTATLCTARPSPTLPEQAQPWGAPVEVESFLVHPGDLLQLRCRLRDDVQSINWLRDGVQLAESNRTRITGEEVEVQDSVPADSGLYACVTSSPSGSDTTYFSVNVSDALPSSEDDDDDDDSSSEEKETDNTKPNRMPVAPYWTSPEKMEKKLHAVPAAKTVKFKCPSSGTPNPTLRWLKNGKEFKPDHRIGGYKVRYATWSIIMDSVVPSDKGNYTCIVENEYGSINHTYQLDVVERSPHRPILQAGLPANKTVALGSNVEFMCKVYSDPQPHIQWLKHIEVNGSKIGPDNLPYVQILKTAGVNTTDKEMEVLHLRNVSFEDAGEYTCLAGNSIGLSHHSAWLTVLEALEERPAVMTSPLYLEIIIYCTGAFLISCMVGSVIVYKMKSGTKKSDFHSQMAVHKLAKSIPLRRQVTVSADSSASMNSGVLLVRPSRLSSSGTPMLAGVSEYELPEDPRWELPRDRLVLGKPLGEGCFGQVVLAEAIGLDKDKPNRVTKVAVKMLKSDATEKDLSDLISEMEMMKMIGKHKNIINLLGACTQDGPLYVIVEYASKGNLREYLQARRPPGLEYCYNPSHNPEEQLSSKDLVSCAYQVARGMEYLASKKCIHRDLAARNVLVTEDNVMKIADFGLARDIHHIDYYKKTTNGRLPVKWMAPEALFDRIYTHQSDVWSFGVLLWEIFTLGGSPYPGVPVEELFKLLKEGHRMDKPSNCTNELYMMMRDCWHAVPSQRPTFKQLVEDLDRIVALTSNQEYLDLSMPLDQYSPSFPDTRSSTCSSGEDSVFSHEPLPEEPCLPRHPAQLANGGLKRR

Row | Compound | BAF3-FGFR 1 (MIN IL3) 96 well pIC50 [1] | BAF3-FGFR 1 (MIN IL3) 384 well pIC50 [1] | BAF3-FGFR 3 (MIN IL3) 96 well pIC50 [2] | BAF3-FGFR 3 (MIN IL3) 384 well pIC50 [2] | BAF3-FLT3 (MIN IL3) 96 well pIC50 ([3]; minus IL3) | BAF3-FLT3 (MIN IL3) 384 well pIC50 ([3]; minus IL3) | BAF3-FLT3 (MIN IL3) 96 well pIC50 ([3]; minus IL3, 96 well) | BAF3-FLT3 (MIN IL3) 384 well pIC50 ([3]; minus IL3, 384 well) | IC50 [4] [µM] | BAF3-FLT3 (PLUS IL3) 384 well pIC50 [4]
1 | COc1cc(OC)cc(N(CC2CC2)c2ccc3ncc(C(=O)Nc4cncn4C)nc3c2)c1 [Compound 27] | <5 | <5 | <5 | <5 | <5 | <5 | – | – | > 10 | –
2 | COCC(CN(c1cc(OC)cc(OC)c1)c1ccc2ncc(-c3cccnc3)nc2c1)OC(C)=O (single isomer, unassigned) [Compound 76] | – | 6.3 | – | 6.59 | – | <5 | – | – | – | <5
3 | COc1cc(OC)cc(N(CC2CC2)c2ccc3ncc(-c4ccc5[nH]ccc5c4)nc3c2)c1 [Compound 86] | – | <5 | 5.4 | <5 | – | – | <5 | <5 | – | –
4 | COc1cc(OC)cc(N(CCO)c2ccc3ncc(-c4ccnc(C(=O)NCCCCCN)c4)nc3c2)c1 [Compound 138] | – | <5 | – | 5.04 | – | <5 | – | – | – | –
5 | COc1cc(OC)cc(N(CC2CC2)c2ccc3ncc(-n4cccn4)nc3c2)c1 [Compound 95] | – | <5 | <5 | <5 | <5 | <5 | – | – | – | –
6 | COc1cc(OC)cc(N(CCCO)c2ccc3ncc(-c4ccnc(Cl)c4)nc3c2)c1 [Compound 136] | – | 5.63 | – | 5.71 | – | – | – | – | > 10 | –
7 | COc1cc(OC)cc(N(CCCNCC(F)(F)F)c2ccc3ncc(-c4cnc(OC)nc4)nc3c2)c1 [Compound 26] | – | 5.13 | – | <5 | – | – | – | – | > 10 | –
8 | COc1cc(OC)cc(N(CCO)c2ccc3ncc(-c4ccc(N5CCNCC5)cc4)nc3c2)c1 [Compound 166] | – | – | – | ~6.1 | – | 5.46 | – | – | ~5.62 | –
9 | COc1cc(OC)cc(N(CCCO)c2ccc3ncc(-c4cnc(N5CCN(C)CC5)c(C)c4)nc3c2)c1 [Compound 135] | – | 6.42 | – | 6.3 | – | 5.43 | – | – | – | –
10 | COc1cc(OC)cc(N(CC2CC2)c2ccc3ncc(-c4ccc5c(c4)OCO5)nc3c2)c1 [Compound 87] | – | <5.4 | – | <5.4 | – | – | – | <5.4 | – | –
11 | COc1cc(OC)cc(N(CC2CC2)c2ccc3ncc(-c4nnc(C)o4)nc3c2)c1 [Compound 85] | – | <5 | 5.06 | <5 | – | – | <5 | <5 | – | –
12 | COc1cc(OC)cc(N(CC2CC2)c2ccc3ncc(-c4cccc(N5CCOCC5)c4)nc3c2)c1 [Compound 92] | <5 | <5 | <5 | <5 | <5 | <5 | – | – | – | –
13 | COc1cc(OC)cc(N(CCO)c2ccc3ncc(N4CCC(CN)CC4)nc3c2)c1 [Compound 84] | – | 5.05 | – | <5 | – | <5 | – | – | – | –
14 | COc1cc(OC)cc(N(CC2CC2)c2ccc3ncc(-c4cnc5[nH]ccc5c4)nc3c2)c1 [Compound 88] | – | <5 | <5 | <5 | – | – | <5 | <5 | – | –

Now from value to compound, other results behind:

Row | BAF3-FGFR 1 (MIN IL3) 96 well pIC50 [1] | BAF3-FGFR 1 (MIN IL3) 384 well pIC50 [1] | BAF3-FGFR 3 (MIN IL3) 96 well pIC50 [2] | BAF3-FGFR 3 (MIN IL3) 384 well pIC50 [2] | BAF3-FLT3 (MIN IL3) 96 well pIC50 ([3]; minus IL3) | BAF3-FLT3 (MIN IL3) 384 well pIC50 ([3]; minus IL3) | BAF3-FLT3 (MIN IL3) 96 well pIC50 ([3]; minus IL3, 96 well) | BAF3-FLT3 (MIN IL3) 384 well pIC50 ([3]; minus IL3, 384 well) | Compound | IC50 [4] [µM] | BAF3-FLT3 (PLUS IL3) 384 well pIC50 [4]
15 | – | 7.04 | – | ~7.15 | – | 5.13 | – | – | COc1cc(OC)cc(N(CCNC(C)C)c2ccc3ncc(-c4ccc(N5CCOCC5)nc4)nc3c2)c1 [Compound 168] | ~8.32 | –
16 | – | 6.9 | – | ~6.64 | – | – | – | – | COc1cc(OC)cc(N(CCN)c2ccc3ncc(-c4ccn(C)c4)nc3c2)c1 [Compound 79] | > 10 | –
17 | – | 6.46 | – | 6.17 | – | – | – | – | COc1cc(OC)cc(N(CCNC(C)C)c2ccc3ncc(-c4ccnn4C4CCCCO4)nc3c2)c1 (stereo not drawn) [Compound 188] | – | –
18 | – | 5.75 | – | ~5.83 | – | 5.91 | – | – | COc1cc(OC)cc(N(CCCNC(C)C)c2ccc3ncc(-c4ccnc(NC(=O)OC(C)(C)C)c4)nc3c2)c1 [Compound 137] | – | –
19 | – | 5.86 | – | – | – | <5 | – | – | COc1cc(OC)cc(N(CCNC(C)C)c2ccc3ncc(C(=O)NCCN4CCOCC4)nc3c2)c1 [Compound 160] | > 10 | –
20 | – | 7.29 | – | ~7.1 | – | – | – | – | COc1cc(OC)cc(N(CCNC(C)C)c2ccc3ncc(-c4ccn[nH]4)nc3c2)c1 [Compound 189] | – | –
21 | – | 5.64 | – | 5.85 | – | – | – | – | COc1cc(OC)cc(N(CCCO)c2ccc3ncc(-c4ccnc(F)c4)nc3c2)c1 [Compound 142] | > 10 | –
22 | 5.06 | – | 5.09 | – | – | – | <5 | – | COc1cc(OC)cc(N(CC2CC2)c2ccc3ncc(-c4ccnc(N5CCOCC5)c4)nc3c2)c1 [Compound 90] | – | –
